How the values were obtained:
Assay in all cases: relative viability (nuclei count vs DMSO), 5 days (fraction); higher = more cells survive
Bemcentinib + Linsitinib = compound: Nc1nc(Nc2ccc3c(c2)CC[C@@H](N2CCCC2)CC3)nn1-c1cc2c(nn1)-c1ccccc1CCC2 [Bemcentinib] + C[C@]1(O)C[C@@H](c2nc(-c3ccc4ccc(-c5ccccc5)nc4c3)c3c(N)nccn32)C1 [Linsitinib] (partner 1 µM)
How it was run: (§1)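 Relative viability was taken as the ratio of nuclei in treated wells to nuclei in vehicle wells. Lung cancer cell lines in 1536-well plates received compounds by pin tool one day after seeding, either one drug alone or a fixed anchor-drug dose plus five library-drug doses (not always all listed) in √10 steps. Nuclei were counted on 4× images after 5 days of treatment, and values are medians of duplicate plates.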

[1] = compound: CC1=CC=C(C=C1)C(=O)CN2C3=C(CCCC3)SC2=N [Pifithrin_alpha] + Nc1ncn([C@H]2C[C@H](O)[C@@H](CO)O2)c(=O)n1 [Decitabine] (partner 2 µM)
How it was run: as §1

Bemcentinib + Crizotinib = compound: Nc1nc(Nc2ccc3c(c2)CC[C@@H](N2CCCC2)CC3)nn1-c1cc2c(nn1)-c1ccccc1CCC2 [Bemcentinib] + C[C@@H](Oc1cc(-c2cnn(C3CCNCC3)c2)cnc1N)c1c(Cl)ccc(F)c1Cl [Crizotinib] (partner 1 µM)
How it was run: as §1

Axitinib + Olaparib = compound: CNC(=O)c1ccccc1Sc1ccc2c(/C=C/c3ccccn3)n[nH]c2c1 [Axitinib] + O=C(c1cc(Cc2n[nH]c(=O)c3ccccc23)ccc1F)N1CCN(C(=O)C2CC2)CC1 [Olaparib] (partner 8 µM)
How it was run: as §1

Cell Line	relative viability (Bemcentinib + Linsitinib; first compound 0.04 µM)	relative viability (Bemcentinib + Linsitinib; first compound 0.1265 µM)	relative viability (Bemcentinib + Linsitinib; first compound 0.4 µM)	relative viability (Bemcentinib + Linsitinib; first compound 1.265 µM)	relative viability (Bemcentinib + Linsitinib; first compound 4 µM)	relative viability ([1]; first compound 1 µM)	relative viability ([1]; first compound 3.162 µM)	relative viability ([1]; first compound 10 µM)	relative viability ([1]; first compound 31.62 µM)	relative viability ([1]; first compound 100 µM)	relative viability (Bemcentinib + Crizotinib; first compound 0.04 µM)	relative viability (Bemcentinib + Crizotinib; first compound 0.1265 µM)	relative viability (Bemcentinib + Crizotinib; first compound 0.4 µM)	relative viability (Bemcentinib + Crizotinib; first compound 1.265 µM)	relative viability (Bemcentinib + Crizotinib; first compound 4 µM)	relative viability (Axitinib + Olaparib; first compound 0.005 µM)	relative viability (Axitinib + Olaparib; first compound 0.01581 µM)	relative viability (Axitinib + Olaparib; first compound 0.05 µM)	relative viability (Axitinib + Olaparib; first compound 0.1581 µM)	relative viability (Axitinib + Olaparib; first compound 0.5 µM)
201T	1.03	1.04	1.02	1.07	1.07	0.866	0.866	0.815	0.701	0.74	1.05	1.03	0.983	1.05	1.07	0.861	0.805	0.795	0.859	0.875
A549	0.655	0.657	0.659	0.677	0.622	–	0.249	0.215	0.207	0.327	0.786	0.795	0.966	0.824	0.742	0.471	0.36	0.373	0.327	0.412
A-427	–	1.14	1.07	1.14	1.14	0.485	0.582	0.543	0.485	0.531	–	0.95	0.843	0.931	0.863	0.778	0.843	0.803	0.753	1.01
ABC-1	0.785	0.811	0.881	0.801	0.682	–	1.02	1.03	1	0.803	1.06	1.26	0.934	0.95	1.02	0.735	–	0.659	0.974	0.78
BEN	0.915	1.09	0.986	0.886	0.907	0.505	0.771	0.742	0.623	0.639	0.936	1.16	0.935	0.845	0.775	1.17	1.42	0.903	1.02	1.07
CAL-12T	0.865	0.821	0.927	0.823	0.863	–	–	–	–	–	0.394	0.767	0.679	0.62	0.525	0.736	0.716	0.736	0.698	0.701
COR-L23	1.04	0.935	1.2	1.17	0.844	0.412	0.399	0.404	–	0.328	0.65	0.787	0.729	0.784	0.56	0.367	0.376	0.326	0.363	0.387
COR-L 105	0.975	0.943	1.15	1.02	0.871	0.652	0.622	0.62	0.646	0.581	0.638	0.843	0.969	0.641	0.621	0.805	0.721	0.647	0.962	0.797
Calu-6	0.946	1.05	1.04	0.983	0.944	–	–	–	–	–	0.76	0.958	1.09	0.858	0.676	0.554	0.605	0.607	0.555	0.681
ChaGo-K-1	–	–	–	–	–	0.491	0.533	0.515	0.407	0.496	1.12	1.33	1.15	1.18	1.12	0.473	0.445	0.412	0.441	0.438
EBC-1	0.926	0.928	0.907	1.19	1.18	–	–	–	–	–	0.185	0.214	0.179	0.236	0.193	0.788	0.648	0.768	0.69	0.769
EKVX	1.06	1.19	1.15	1.26	1.15	0.343	0.553	0.319	0.32	0.368	0.973	0.981	1.06	1.03	0.986	0.979	0.826	0.902	0.883	1.03
EMC-BAC-2	0.816	0.845	0.879	0.889	0.871	–	0.95	–	0.84	0.972	0.788	0.801	0.776	0.836	0.831	0.5	0.542	0.516	0.512	0.508
EPLC-272H	–	1.08	1.28	1.16	1.19	–	0.268	0.39	0.375	0.358	–	0.96	1.05	0.86	1.01	0.845	0.927	0.884	0.475	1.13
H3255	0.89	1.22	1.04	1.02	0.888	0.581	0.66	0.646	0.389	0.572	0.867	0.938	0.914	0.878	0.888	0.615	0.565	0.566	0.572	0.639
HARA	1.01	1.07	1.01	0.994	1.05	0.474	0.622	0.628	0.514	0.472	1.02	1.28	1.22	1.08	1.03	1.02	0.88	0.835	0.95	0.921
HCC-15	0.828	0.983	0.923	0.904	0.93	0.657	0.738	0.573	0.531	0.456	0.834	0.91	0.908	0.871	0.92	0.77	0.75	0.766	0.682	0.667

From the supplement of paper PMC10307832
